Results on six compounds are retold here after patent US10870638B2, “Pyridazinone compound or its salt, and herbicide containing it” (ISHIHARA SANGYO KAISHA, LTD., priority 2016, dated 2020).

Holding throughout (format): in vivo
Holding throughout (conditions): 14th day after application

Test [1] deals with soybean (Glycine max Merr.). In words: Test Example 1: foliar treatment, growth inhibition rate on 14th day. The method, boiled down:
(§1)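 Sow seeds in upland soil pots; at target leaf stage (wild oat 0.4–1.2, rice 0.2–2.7, foxtail 0.5–3.2, soybean primary leaf) spray formulated compound in water, 1,000 L/ha, 0.1 vol % surfactant. Score inhibition visually at day 14, 0–100%.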

Test [2] deals with wild oat (Avena fatua L.). Described as above. A digest of the protocol: as §1
Test [3] relates to redroot pigweed (Amaranthus retroflexus L.). Described as above. A digest of the protocol:
(§2)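 Using a small sprayer, formulated compound in water (0.1 vol % surfactant, 1,000 L/ha) was applied to seedlings grown from seed in upland soil. Fourteen days on, growth state was observed and expressed as percent inhibition from 0 to 100.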

The test system of test [4] is wheat (Triticum aestivum L.). The description is as above. A digest of the protocol: as §2
Test [5] relates to corn (Zea mays L.). The description is as above. A digest of the protocol:
as §2

Test [6] concerns barnyardgrass (Echinochloa crus-qalli L.). Described as above. The method, boiled down: as §2
The subject of test [7] is italian ryegrass (Lolium multiflorum Lam.). The description is as above. The method, boiled down: as §2
In test [8] the test system is crabgrass (Digitaria sanquinalis L.). The description is as above. A digest of the protocol: as §2
Test [9] concerns green foxtail (Setaria viridis L.). Described as above. A digest of the protocol:
as §1

Test [10] deals with rice (Oryza sativa L.). Described as above. The method, boiled down: as §1
In test [11] the test system is velvetleaf (Abutilon theophrasti MEDIC.). In words: Test Example 2: soil application on the day after sowing, growth inhibition rate on 14th day. A digest of the protocol: (§3)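 Field soil in 1/300,000 ha pots was sown, and the next day compounds formulated as wettable powders or emulsifiable concentrates were diluted in water (1,000 L/ha) and soil-sprayed at the prescribed active ingredient rates. Growth inhibition was scored visually 14 days later, 0 (untreated) to 100 (complete kill).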

The subject of test [12] is soybean (Glycine max Merr.). Described as above. A digest of the protocol: as §3
The subject of test [13] is redroot pigweed (Amaranthus retroflexus L.). The description is as above. The method, boiled down:
as §3

In test [14] the test system is wheat (Triticum aestivum L.). The description is as above. The method, boiled down:
as §3

Test [15] relates to prickly sida (Sida spinosa L.). The description is as above. The method, boiled down:
as §3

The subject of test [16] is corn (Zea mays L.). Described as above. The method, boiled down: as §3
The test system of test [17] is crabgrass (Digitaris sanquinalis L.). The test is described as above. A digest of the protocol: as §3
For test [18], the system named is barnyardgrass (Echinochloa crus-qalli L.). The test is described as above. A digest of the protocol:
as §3

Test [19] has as its system green foxtail (Setaria viridis L.). The test is described as above. The method, boiled down: as §3
Test [20] concerns rice (Oryza sativa L.). The description is as above. The method, boiled down: as §3
[21] abbreviates: active ingredient amount 31 g/ha.
The mark [22] stands for this setting: active ingredient amount 500 g/ha.

Turning to `Cc1ccc(Oc2cc(C(F)(F)F)c(C(F)(F)F)cn2)cc1-c1c(O)c(C)nn(C)c1=O` [Compound 2-93], the “Growth inhibition rate (%) Soybean” value in [1] (setting [21]) is listed as 10%; in test [12] (setting [21]), 0%. In test [2] (setting [21]), the “Growth inhibition rate (%) Wild oat” value is 30%. Moreover, the “Growth inhibition rate (%) Redroot pigweed” value in [3] (setting [21]) was found to be 20%; in [13] (setting [21]), 0%. The “Growth inhibition rate (%) Wheat” value in test [4] (setting [21]) and in [14] (setting [21]) was 0% in each case. Besides, the figures for the “Growth inhibition rate (%) Corn” value with corn (Zea mays L.) [5] (setting [21]) and in the test on corn (Zea mays L.) [16] (setting [21]) were 95% and 0%, respectively. The “Growth inhibition rate (%) Barnyardgrass” value in test [6] (setting [21]) and in test [18] (setting [21]) was 100% throughout. The “Growth inhibition rate (%) Italian ryegrass” value in test [7] (setting [21]) is reported as 88%. The “Growth inhibition rate (%) Crabgrass” value in [8] (setting [21]) and in [17] (setting [21]) was 99% in each case. The figures for the “Growth inhibition rate (%) Green foxtail” value in test [9] (setting [21]) and in test [19] (setting [21]) were 100% and 99%, respectively. Also, the “Growth inhibition rate (%) Rice” value in the test on rice (Oryza sativa L.) [10] (setting [21]) and in the test on rice (Oryza sativa L.) [20] (setting [21]) was 0% throughout. For the same compound, in test [11] (setting [21]), the “Growth inhibition rate (%) Velvetleaf” value is 0%. Further, in test [15] (setting [21]), the “Growth inhibition rate (%) Prickly sida” value is 0%.

As for `Cc1ccc(Oc2ncc(Br)cc2Cl)cc1-c1c(O)c(C)nn(C)c1=O` [Compound 2-101], the “Growth inhibition rate (%) Soybean” value is on record as 20% in test [1] (setting [21]) and 0% in test [12] (setting [21]). Moreover, in test [2] (setting [21]), the “Growth inhibition rate (%) Wild oat” value is recorded as 70%. The “Growth inhibition rate (%) Redroot pigweed” value in test [3] (setting [21]) and in test [13] (setting [21]) was 0% each time. The “Growth inhibition rate (%) Wheat” value in test [4] (setting [21]) was 0%; in test [14] (setting [21]), 10%. Further, the “Growth inhibition rate (%) Corn” value in the test with corn (Zea mays L.) [5] (setting [21]) is listed as 80%; in the test with corn (Zea mays L.) [16] (setting [21]), 20%. For the same compound, the “Growth inhibition rate (%) Barnyardgrass” value in test [6] (setting [21]) was 75%; in test [18] (setting [21]), 78%. Besides, the “Growth inhibition rate (%) Italian ryegrass” value in test [7] (setting [21]) came to 50%. The “Growth inhibition rate (%) Crabgrass” value in test [8] (setting [21]) is listed as 85%; in test [17] (setting [21]), 93%. The “Growth inhibition rate (%) Green foxtail” value is on record as 88% in test [9] (setting [21]) and 95% in test [19] (setting [21]). The “Growth inhibition rate (%) Rice” value in the test with rice (Oryza sativa L.) [10] (setting [21]) and in the test on rice (Oryza sativa L.) [20] (setting [21]) was 0% each time. For the same compound, the “Growth inhibition rate (%) Velvetleaf” value in test [11] (setting [21]) came out at 0%. For the same compound, the “Growth inhibition rate (%) Prickly sida” value in test [15] (setting [21]) is 0%.

Take `Cc1ccc(Oc2ccc3ccccc3n2)cc1-c1c(O)c(C)nn(C)c1=O` [Compound 2-108]: the “Growth inhibition rate (%) Soybean” value is recorded as 20% in [1] (setting [22]) and 0% in test [12] (setting [22]). Also, in [2] (setting [22]), the “Growth inhibition rate (%) Wild oat” value turned out to be 50%. For the same compound, the “Growth inhibition rate (%) Redroot pigweed” value in test [3] (setting [22]) and in [13] (setting [22]) was 0% in each case. In addition, the “Growth inhibition rate (%) Wheat” value in test [4] (setting [22]) came to 50%; in [14] (setting [22]), 0%. Besides, the “Growth inhibition rate (%) Corn” value in the test with corn (Zea mays L.) [5] (setting [22]) is reported as 10%; with corn (Zea mays L.) [16] (setting [22]) it was 0%. Besides, the “Growth inhibition rate (%) Barnyardgrass” value in [6] (setting [22]) and in test [18] (setting [22]) was 100% each time. The “Growth inhibition rate (%) Italian ryegrass” value in test [7] (setting [22]) was 10%. Moreover, the “Growth inhibition rate (%) Crabgrass” value in [8] (setting [22]) turned out to be 85%; in test [17] (setting [22]) it was 98%. Moreover, the “Growth inhibition rate (%) Green foxtail” value in test [9] (setting [22]) is recorded as 95%; in [19] (setting [22]) it was 93%. Besides, the “Growth inhibition rate (%) Rice” value in the test with rice (Oryza sativa L.) [10] (setting [22]) and in the test on rice (Oryza sativa L.) [20] (setting [22]) was 93% each time. In addition, the “Growth inhibition rate (%) Velvetleaf” value in [11] (setting [22]) was determined as 0%. The “Growth inhibition rate (%) Prickly sida” value in test [15] (setting [22]) amounted to 0%.

For `Cc1ccc(Oc2cnc3ccccc3c2)cc1-c1c(O)c(C)nn(C)c1=O` [Compound 2-112], the “Growth inhibition rate (%) Soybean” value in [1] (setting [22]) and in [12] (setting [22]) was 0% each time. Besides, the “Growth inhibition rate (%) Wild oat” value in test [2] (setting [22]) is 90%. Besides, the “Growth inhibition rate (%) Redroot pigweed” value in test [3] (setting [22]) was 20%; in test [13] (setting [22]), 0%. Further, the “Growth inhibition rate (%) Wheat” value in test [4] (setting [22]) was found to be 80%; in test [14] (setting [22]), 20%. Moreover, the “Growth inhibition rate (%) Corn” value amounted to 93% in the test with corn (Zea mays L.) [5] (setting [22]) and 0% in the test on corn (Zea mays L.) [16] (setting [22]). The “Growth inhibition rate (%) Barnyardgrass” value in test [6] (setting [22]) is on record as 99%; in test [18] (setting [22]), 100%. Also, in [7] (setting [22]), the “Growth inhibition rate (%) Italian ryegrass” value was found to be 90%. Moreover, the “Growth inhibition rate (%) Crabgrass” value in test [8] (setting [22]) is listed as 98%; in test [17] (setting [22]) it was 100%. The “Growth inhibition rate (%) Green foxtail” value in [9] (setting [22]) and in test [19] (setting [22]) was 100% each time. For the same compound, the “Growth inhibition rate (%) Rice” value with rice (Oryza sativa L.) [10] (setting [22]) was determined as 93%; with rice (Oryza sativa L.) [20] (setting [22]), 70%. The “Growth inhibition rate (%) Velvetleaf” value in test [11] (setting [22]) amounted to 0%. Also, in [15] (setting [22]), the “Growth inhibition rate (%) Prickly sida” value is recorded as 0%.

On to `CC(=O)Oc1c(C)nn(C)c(=O)c1-c1cc(Oc2ncc(C(F)(F)F)cc2C(F)(F)F)ccc1C` [Compound 2-116], for which the “Growth inhibition rate (%) Soybean” value in test [1] (setting [21]) is 10%; in test [12] (setting [21]), 0%. Moreover, the “Growth inhibition rate (%) Wild oat” value in test [2] (setting [21]) turned out to be 100%. Also, the “Growth inhibition rate (%) Redroot pigweed” value in test [3] (setting [21]) and in test [13] (setting [21]) was 0% each time. Moreover, the “Growth inhibition rate (%) Wheat” value was found to be 99% in test [4] (setting [21]) and 60% in test [14] (setting [21]). Also, the figures for the “Growth inhibition rate (%) Corn” value in the test with corn (Zea mays L.) [5] (setting [21]) and with corn (Zea mays L.) [16] (setting [21]) were 100% and 85%, respectively. Besides, the “Growth inhibition rate (%) Barnyardgrass” value in [6] (setting [21]) and in test [18] (setting [21]) was 100% each time. In addition, the “Growth inhibition rate (%) Italian ryegrass” value in test [7] (setting [21]) is recorded as 100%. The “Growth inhibition rate (%) Crabgrass” value in test [8] (setting [21]) and in test [17] (setting [21]) was 100% in each case. The “Growth inhibition rate (%) Green foxtail” value in test [9] (setting [21]) and in test [19] (setting [21]) was 100% throughout. In addition, the “Growth inhibition rate (%) Rice” value came to 90% in the test with rice (Oryza sativa L.) [10] (setting [21]) and 0% in the test with rice (Oryza sativa L.) [20] (setting [21]). Also, the “Growth inhibition rate (%) Velvetleaf” value in [11] (setting [21]) was found to be 0%. Moreover, the “Growth inhibition rate (%) Prickly sida” value in [15] (setting [21]) is 0%.

Turning to `CC(=O)Oc1c(C)nn(C)c(=O)c1-c1cc(Oc2nc3ccc(C(F)(F)F)nc3o2)ccc1C` [Compound 2-121], the “Growth inhibition rate (%) Soybean” value in test [1] (setting [21]) and in [12] (setting [21]) was 0% in each case. Besides, the “Growth inhibition rate (%) Wild oat” value in test [2] (setting [21]) worked out at 98%. The “Growth inhibition rate (%) Redroot pigweed” value worked out at 20% in test [3] (setting [21]) and 0% in test [13] (setting [21]). Also, the results for the “Growth inhibition rate (%) Wheat” value in [4] (setting [21]) and in test [14] (setting [21]) were 78% and 0%, respectively. Also, the “Growth inhibition rate (%) Corn” value with corn (Zea mays L.) [5] (setting [21]) and with corn (Zea mays L.) [16] (setting [21]) was 20% throughout. In addition, the “Growth inhibition rate (%) Barnyardgrass” value in [6] (setting [21]) and in [18] (setting [21]) was 100% throughout. The “Growth inhibition rate (%) Italian ryegrass” value in test [7] (setting [21]) is on record as 98%. For the same compound, the “Growth inhibition rate (%) Crabgrass” value in test [8] (setting [21]) and in test [17] (setting [21]) was 98% throughout. Besides, the “Growth inhibition rate (%) Green foxtail” value in test [9] (setting [21]) and in [19] (setting [21]) was 100% throughout. In addition, the figures for the “Growth inhibition rate (%) Rice” value in the test on rice (Oryza sativa L.) [10] (setting [21]) and with rice (Oryza sativa L.) [20] (setting [21]) were 90% and 0%, respectively. In addition, the “Growth inhibition rate (%) Velvetleaf” value in test [11] (setting [21]) is listed as 0%. Further, the “Growth inhibition rate (%) Prickly sida” value in test [15] (setting [21]) is 0%.
